Experimental data from patent publication US6465654B2, “Process for preparing 1-substituted, 2-substituted 1H-imidazo[4, 5-c]quinoline-4-amines” (3M Innovative Properties Company, priority 1991, dated 2002).

Legend:
[1] = test system: Herpes simplex virus Type II strain 333; assay: Antiviral activity in guinea pigs infected with Herpes simplex virus Type II (lesion inhibition); assay type: in vivo; details: oral once daily for four days
Excerpt: Female Hartley guinea pigs weighing 200 to 250 g are anesthetized with methoxyflurane (available under the […] from Pitman-Moore, Inc., Washington Crossing, N.J.), after which the vaginal area is swabbed with a dry cotton swab. The guinea pigs are then infected intravaginally with a cotton swab saturated with Herpes simplex virus Type II strain 333 (1×10^5 plaque forming units/mL). Guinea pigs are assigned to groups of 7 animals; one group for each treatment and one to serve as a control (vehicle treated). The compounds of the invention are formulated in water containing 5% Tween 80 (a polyoxyethylene sorbitan monooleate available from Aldrich Chemical Company, Inc., Milwaukee, Wis.). The, guinea pigs are treated orally once daily for four consecutive days starting 24 hours after infection. Antiviral activity is evaluated by comparing lesion development in compound-treated versus vehicle-treated guinea pigs. […] The maximum lesion score of each guinea pig is used to calculate the percentage lesion inhibition. The percentage lesion inhibition is calculated as follows: […]

interferon [2] = assay: Interferon induction in guinea pigs (serum interferon titer); assay type: in vivo; details: guinea pig serum 24 hours after initial oral dose, 2 mg/kg
Excerpt: Female Hartley guinea pigs weighing 200 to 250 g are anesthetized with methoxyflurane (available under the […] from Pitman-Moore, Inc., Washington Crossing, N.J.), after which the vaginal area is swabbed with a dry cotton swab. The guinea pigs are then infected intravaginally with a cotton swab saturated with Herpes simplex virus Type II strain 333 (1×10^5 plaque forming units/mL). Guinea pigs are assigned to groups of 7 animals; one group for each treatment and one to serve as a control (vehicle treated). The compounds of the invention are formulated in water containing 5% Tween 80 (a polyoxyethylene sorbitan monooleate available from Aldrich Chemical Company, Inc., Milwaukee, Wis.). The, guinea pigs are treated orally once daily for four consecutive days starting 24 hours after infection. Twenty-four hours after the initial dose of test compound has been administered, blood is obtained from 3 guinea pigs from each treatment group by cardiac puncture of methoxyflurane anesthetized animals. Blood is pooled and allowed to clot at room temperature. After low speed centrifugation, serum is collected and stored at -70° C. until analysis. Interferon levels in the guinea pig serum are determined in a standard microtiter assay using transformed guinea pig cells (ATCC CRL 1405). The interferon assay is done in 96 well microtiter plates. Confluent monolayers of transformed guinea pig cells are treated with dilutions of guinea pig serum made with medium 199 (GIBCO, Grand Island, N.Y.). The cell and serum dilutions are incubated at 37° C. overnight. The following day, the medium and serum are removed and about 10 plaque forming units of Mengovirus are added to each well. Controls consist of wells that receive no guinea pig serum (virus positive control) and wells that receive no virus (virus negative control). Cells and virus are incubated for 2 to 3 days at 37° C. before quantifying for viral cytopathic effect. The viral cytopathic effect is quantified by staining with 0.05% crystal violet followed by spectrophotometric absorbance measurements. The titer of interferon in serum is expressed as units/mL and is the reciprocal of the highest dilution that protects cells from virus.

interferon-α [3] = assay: Interferon-α induction in human cells, PBM; assay type: cell-based; details: 24 hours
interferon [4] = assay: Interferon induction in mice; assay type: in vivo; details: mouse serum
How it was run: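 Mouse serum collected at 1, 2 and 4 h (separate groups), pooled, stored at −70° C, then assayed as for human-cell interferon. Values in α/β reference units/mL against a mouse MU-1-IF standard; "<" marks levels below assay sensitivity.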

interferon-α [5] = assay: Interferon-α induction in human cells, diluted whole blood; assay type: cell-based; details: 24 hours
MC-26 colon tumor cells = assay: Inhibition of MC-26 tumors in mice, 14 day lung colony count; assay type: in vivo; details: lung colonies day 14, 4×10^4 MC-26 cells i.v., oral 30 mg/kg on days 3-7 and 10-14; control 385 ± 31
Experimental: The mice are sacrificed 14 days later. […] Five mice are in each treatment group and comparisons are made to controls. […] The mice in the control groups were dosed orally with saline (10 mL/kg) on days 3, 4, 5, 6, and 7, and with water (10 mL/kg) on days 10, 11, 12, 13, and 14.

Structure (SMILES)	% Lesion Inhibition ([1]; dose 2 mg/kg) [%]	Interferon-α induction (interferon-α [3]; dose concentration 0.01 μg/mL)	Interferon-α induction (interferon-α [3]; dose concentration 0.05 μg/mL)	Interferon-α induction (interferon-α [3]; dose concentration 0.10 μg/mL)	Interferon-α induction (interferon-α [3]; dose concentration 0.50 μg/mL)	Interferon-α induction (interferon-α [3]; dose concentration 1.0 μg/mL)	Interferon-α induction (interferon-α [3]; dose concentration 5.0 μg/mL)	Interferon induction in mice (interferon [4]; oral 1 mg/kg, 1 hr) [Reference Units/mL]	Interferon induction in mice (interferon [4]; oral 1 mg/kg, 2 hr) [Reference Units/mL]	Interferon induction in mice (interferon [4]; oral 1 mg/kg, 4 hr)	Interferon induction in mice (interferon [4]; oral 3 mg/kg, 1 hr)	Interferon induction in mice (interferon [4]; oral 3 mg/kg, 2 hr)	Interferon induction in mice (interferon [4]; oral 3 mg/kg, 4 hr) [Reference Units/mL]	Interferon induction in mice (interferon [4]; oral 10 mg/kg, 1 hr) [Reference Units/mL]	Interferon induction in mice (interferon [4]; oral 10 mg/kg, 2 hr)	Interferon induction in mice (interferon [4]; oral 10 mg/kg, 4 hr)	Interferon induction in mice (interferon [4]; oral 30 mg/kg, 1 hr) [Reference Units/mL]	Interferon induction in mice (interferon [4]; oral 0.3 mg/kg, 1 hr)	Interferon induction in mice (interferon [4]; oral 0.3 mg/kg, 2 hr)	Interferon induction in mice (interferon [4]; oral 0.3 mg/kg, 4 hr)	further results
CC(C)Cn1c(CO)nc2c(N)nc3ccccc3c21 [Example 9, 4-Amino-1-(2-methylpropyl)-1H-imidazo-[4,5-c]quinoline-2-methanol]	37	<1.8 α Reference Units/mL	16 α Reference Units/mL	140 α Reference Units/mL	750 α Reference Units/mL	750 α Reference Units/mL	750 α Reference Units/mL	<47	<47	<47 Reference Units/mL	≦47 Reference Units/mL	≦47 Reference Units/mL	<47	330	740 Reference Units/mL	≦47 Reference Units/mL	2900	–	–	–	Reference Units/mL (interferon in serum) (interferon [2]): 266 Units/mL; Interferon induction in mice (interferon [4]; oral 30 mg/kg, 2 hr): 5000 Reference Units/mL; Interferon induction in mice (interferon [4]; oral 30 mg/kg, 4 hr): 4 Reference Units/mL
CC(C)Cn1c(CCl)nc2c(N)nc3ccccc3c21.Cl [Example 10, 2-Chloromethyl-1-(2-methylpropyl)-1H-imidazo[4,5-c]quinolin-4-amine Hydrochloride]	–	<1.3 α Reference Units/mL	28 α Reference Units/mL	140 α Reference Units/mL	750 α Reference Units/mL	750 α Reference Units/mL	190 α Reference Units/mL	<120	<120	<120 Reference Units/mL	<120 Reference Units/mL	<120 Reference Units/mL	<120	<120	<120 Reference Units/mL	600 Reference Units/mL	–	<120 Reference Units/mL	<120 Reference Units/mL	<120 Reference Units/mL	% Lesion Inhibition ([1]; dose 0.5 mg/kg): 29%; Interferon-α induction (interferon-α [5]; dose concentration 0.10 μg/mL): <1.5 α Reference Units/mL; Interferon-α induction (interferon-α [5]; dose concentration 0.50 μg/mL): 96 α Reference Units/mL; Interferon-α induction (interferon-α [5]; dose concentration 1.0 μg/mL): 120 α Reference Units/mL; Interferon-α induction (interferon-α [5]; dose concentration 5.0 μg/mL): 120 α Reference Units/mL
CC(C)Cn1c(C(C)O)nc2c(N)nc3ccccc3c21 (stereo not drawn) [Example 20, 4-Amino-α-methyl-1-(2-methylpropyl)-1H-imidazo[4,5c]-quinoline-2-methanol]	100	<1.8 α Reference Units/mL	190 α Reference Units/mL	190 α Reference Units/mL	1000 α Reference Units/mL	1000 α Reference Units/mL	1000 α Reference Units/mL	140	560	<47 Reference Units/mL	970 Reference Units/mL	1200 Reference Units/mL	140	2200	5000 Reference Units/mL	100 Reference Units/mL	2200	–	–	–	Interferon-α induction (interferon-α [5]; dose concentration 0.10 μg/mL): 85 α Reference Units/mL; Interferon-α induction (interferon-α [5]; dose concentration 0.50 μg/mL): 440 α Reference Units/mL; Interferon-α induction (interferon-α [5]; dose concentration 1.0 μg/mL): 250 α Reference Units/mL; Interferon-α induction (interferon-α [5]; dose concentration 5.0 μg/mL): 190 α Reference Units/mL; Interferon induction in mice (interferon [4]; oral 30 mg/kg, 2 hr): 8700 Reference Units/mL; Interferon induction in mice (interferon [4]; oral 30 mg/kg, 4 hr): 320 Reference Units/mL
COCc1nc2c(N)nc3ccccc3c2n1CC(C)C [Example 34, 2-Methoxymethyl-1-(2-methylpropyl)-1H-imidazo[4,5-c]quinolin-4-amine]	–	<4 α Reference Units/mL	<4 α Reference Units/mL	1600 α Reference Units/mL	550 α Reference Units/mL	180 α Reference Units/mL	200 α Reference Units/mL	140	320	≦61 Reference Units/mL	420 Reference Units/mL	420 Reference Units/mL	140	1100	1100 Reference Units/mL	180 Reference Units/mL	–	≦61 Reference Units/mL	≦61 Reference Units/mL	≦61 Reference Units/mL	Number of Colonies (MC-26 colon tumor cells): 196 ± 20
COCCn1c(COC)nc2c(N)nc3ccccc3c21 [Example 37, 1-(2-Methoxyethyl)-2-methoxymethyl-1H-imidazo[4,5-c]quinolin-4-amine]	–	–	–	<4 α Reference Units/mL	2500 α Reference Units/mL	2500 α Reference Units/mL	210 α Reference Units/mL	<120	<120	<120 Reference Units/mL	<120 Reference Units/mL	<120 Reference Units/mL	<120	270	≦270 Reference Units/mL	≦270 Reference Units/mL	–	<120 Reference Units/mL	<120 Reference Units/mL	<120 Reference Units/mL	Number of Colonies (MC-26 colon tumor cells): 123 ± 31
